Experimental data: article PMC5532651, “Bistratamides M and N, Oxazole-Thiazole Containing Cyclic Hexapeptides Isolated from Lissoclinum bistratum Interaction of Zinc (II) with Bistratamide K” (Marine Drugs, 2017)

What was measured:
[1] = system: human tumor cell lines A-549 (lung), HT-29 (colon), MDA-MB-231 (breast) and PSN1 (pancreas); assay: Cytotoxicity against four human tumor cell lines (summary in words); assay type: cell-based; settings: GI50 values in the micromolar range
Method: (§1) The cytotoxic activity of compounds 1 and 2 was tested against NSLC A-549 human lung carcinoma cells, MDA-MB-231 human breast adenocarcinoma cells, HT-29 human colorectal carcinoma cells, and PSN1 (human pancreatic carcinoma cells). The concentration giving 50% inhibition of cell growth (GI50) was calculated according to the procedure described in the literature. Cell survival was estimated using the National Cancer Institute (NCI) algorithm. Three dose response parameters were calculated for 1 and 2.

[2] = system: recombinant human topoisomerase I; assay: Enzymatic Topoisomerase 1 (Top1) assay; assay type: biochemical; settings: up to highest concentration tested 100 μM (range 100 to 0.2 μM); 50 pM enzyme; 1 h preincubation, 1 h reaction, room temperature, pH 8.0; H19 dye fluorescence
Method: The activity of human topoisomerase I was determined based on the increase in fluorescence of a commercial dye (“H19”, Profoldin, Westborough, MA, USA) when interacting with DNA and the higher number of interaction points present in supercoiled DNA with respect to relaxed DNA. Therefore, the activity of the enzyme causes a decrease of fluorescence intensity when the probe is added. The enzyme reaction is performed in a final volume of 20 μL in 384 black wells. Compounds 1 and 2, at twice their final concentrations, were mixed with 50 pM recombinant human topoisomerase I (Profoldin, Westborough, MA, USA) in 10 μL of 10 mM Tris-HCl pH 8.0 with 150 mM sodium chloride, 3 mM magnesium chloride and 5% (v/v) glycerol and incubated for 1 h at room temperature. Then, reaction was started by the addition of 10 μL of supercoiled DNA (Profoldin, Westborough, MA, USA) at 25 μg/mL in the same buffer and the mixture was incubated at room temperature for 1 h. […] After 1 h at room temperature the degree of conversion from supercoiled to relaxed DNA was determined by monitoring fluorescence intensity (excitation at 485 nm, emission at 535 nm) in a microtiter plate reader. […] IC50 values were calculated by fitting the results to a typical four parameters logistic curve by nonlinear regression analysis.

[3] = system: NSLC A-549 human lung carcinoma cells; assay: Cell proliferation / cytotoxicity, NSLC A-549 lung; assay type: cell-based; settings: for LC50: concentration producing 50% cell death vs control; for GI50: NCI algorithm; for TGI: concentration producing total growth inhibition vs control
Method: as §1

[4] = system: HT-29 human colorectal carcinoma cells; assay: Cell proliferation / cytotoxicity, HT-29 colon; assay type: cell-based; settings: for LC50: concentration producing 50% cell death vs control; for GI50: concentration producing 50% inhibition of cell growth vs control, NCI algorithm; for TGI: concentration producing total growth inhibition vs control
Method: as §1

[5] = system: MDA-MB-231 human breast adenocarcinoma cells; assay: Cell proliferation / cytotoxicity, MDA-MB-231 breast; assay type: cell-based; settings: for LC50: concentration producing 50% cell death vs control; for GI50: concentration producing 50% inhibition of cell growth vs control, NCI algorithm; for TGI: concentration producing total growth inhibition vs control
Method: as §1

[6] = system: PSN1 (human pancreatic carcinoma cells); assay: Cell proliferation / cytotoxicity, PSN1 pancreas; assay type: cell-based; settings: for LC50: concentration producing 50% cell death vs control; for GI50: concentration producing 50% inhibition of cell growth vs control, NCI algorithm; for TGI: concentration producing total growth inhibition vs control
Method: as §1

[7] = concentration producing 50% inhibition of cell growth vs control

Structure (SMILES)	cytotoxic activity (in words) [1]	Top1 inhibition [2]	LC50 [3] [µM]	GI50 [3, 7] [µM]	TGI [3] [µM]	LC50 [4] [µM]	GI50 [4] [µM]	TGI [4] [µM]	LC50 [5] [µM]	GI50 [5] [µM]	TGI [5] [µM]	LC50 [6] [µM]	GI50 [6] [µM]	TGI [6] [µM]	GI50 ([3]; Homo sapiens, A549, concentration producing 50% inhibition of cell growth vs control) [µM]	GI50 ([4]; Homo sapiens) [µM]	GI50 ([5]; Homo sapiens) [µM]	GI50 ([6]; Homo sapiens) [µM]
CC[C@H](C)[C@@H]1NC(=O)c2csc(n2)[C@@H](C)NC(=O)c2coc(n2)[C@H](C)NC(=O)c2csc1n2 [Bistratamide N (2), Bistratamide N]	moderate cytotoxic activity with GI50 values in the micromolar range	failed to show any hint of inhibition even at the highest concentration tested	>20.0	11	>20.0	>20	13	>20	>20.0	> 20	>20.0	>20.0	15	>20.0	–	–	–	–
CC[C@H](C)[C@@H]1NC(=O)c2csc(n2)[C@H](C)NC(=O)c2coc(n2)[C@H](C)NC(=O)c2csc1n2 [Bistratamide M (1), Bistratamide M]	moderate cytotoxic activity with GI50 values in the micromolar range	failed to show any hint of inhibition even at the highest concentration tested	>20.0	9.1	>20.0	>20.0	16	>20.0	>20.0	18	>20.0	>20.0	9.8	>20.0	–	–	–	–
COc1cccc2c1C(=O)c1c(O)c3c(c(O)c1C2=O)C[C@@](O)(C(=O)CO)C[C@@H]3O[C@H]1C[C@H](N)[C@H](O)[C@H](C)O1 [Doxorubicin, reference compound]	–	–	>17.2	–	0.9	>17.2	–	0.9	2.4	–	0.5	3.1	–	0.5	0.2	0.3	0.2	0.2
